# According to patent US9693996B1, “Chlorophyll c containing degranulation suppressor” (MARUHA NICHIRO CORPORATION, priority 2011, dated 2017):
# How the values were obtained:
# [1] = tested on: rat basophile derived cell line RBL-2H3; assay: Test for evaluating degranulation suppressing activity (β-hexosaminidase release); type: cell-based; details: for degranulation suppressing activity (percent degranulation): RBL-2H3 sensitized with anti DNP-IgE, stimulated with DNP-albumin, control group taken as 100%
# Description: First, the rat basophile derived cell line RBL-2H3 was diluted with a DMEM medium (product of SIGMA) containing 10% fetal bovine serum (hereinafter referred to as FBS) to give a density of 2.5×10^5 cells/ml, dispensed on a 24-well culture plate in a volume of 1 ml/well, and cultured overnight at 37° C. under conditions of 5% CO2 and 100% humidity. After removing the culture supernatant, the cell surfaces were washed with 1 ml/well of a phosphate buffer solution (hereinafter referred to as PBS) and an anti DNP-IgE solution prepared by diluting mouse monoclonal anti-dinitrophenol (product of SIGMA) with a DMEM medium to give a concentration of 50 ng/ml was added in a volume of 500 μl/well, followed by incubation for 2 hours at 37° C. under conditions of 5% CO2 and 100% humidity. After the end of incubation, the anti DNP-IgE solution was removed and washing was done using 1.5 ml/well of a buffer solution containing 137 mM NaCl (product of nacalai tesque), 2.7 mM KCl (JUNSEI CHEMICAL), 1.8 Mm CaCl2.2H2O (JUNSEI CHEMICAL), 1 mM MgCl2. 6H2O (JUNSEI CHEMICAL), 5.6 mM glucose (Wako Pure Chemical Industries), 20 mM HEPES (Wako Pure Chemical Industries) and 0.1% BSA (the buffer solution being a modified Tyrode buffer which is hereinafter referred to as “MT buffer”); this procedure was repeated twice. Next, an MT buffer containing 0.5% of a chlorophyll, i.e., an authentic sample of chlorophyll a (product of DHI), an authentic sample of chlorophyll b (product of DHI), an authentic sample of chlorophyll c2 (product of DHI), or an authentic sample of chlorophyll d (purified from cyanobacteria adhering to surfaces of red algae, by referring to Non-Patent Documents 10 and 11, for example) was added in a volume of 490 μl/well and incubation was conducted for 10 minutes at 37° C. under conditions of 5% CO2 and 100% humidity. To a control group that would not undergo suppression of the degranulation reaction, an MT buffer containing 0.5% ethanol was added. After 10-min incubation, Albumin, dinitrophenyl (product of SIGMA) was added to give a concentration of 200 ng/ml and the mixture was stirred to homogeneity, followed by 30-min incubation at 37° C. under conditions of 5% CO2 and 100% humidity. After the end of incubation, the mixture was ice-cooled for 10 minutes to quench the reaction and 500 μl of the supernatant was recovered. To the cells from which the culture supernatant was recovered, Cell Lysate buffer (product of SIGMA) was added in a volume of 500 μl/well and thereafter an ultrasonic cell disrupter was used to form a homogeneous cell lysate which was recovered in a volume of 500 μl. The culture supernatant and the cell lysate were dispensed on a 96-well plate, each in a volume of 50 μl/well, and incubated at 37° C. for 5 minutes. After the end of incubation, an aqueous solution containing 100 mM citric acid and 3.3 mM p-nitrophenyl-2-acetoamido-2-deoxy-β-D-glucopyranoside (product of Wako Pure Chemical Industries) (the aqueous solution is hereinafter referred to as a “substrate solution”) was added in a volume of 100 μl/well and after thorough mixing, incubation was conducted at 37° C. for 25 minutes. After the end of incubation, an aqueous solution containing 2 M glycine (the aqueous solution is hereinafter referred to as a “reaction quencher”) was added in a volume of 100 μl/well and thorough mixing was conducted to quench the reaction; thereafter, a plate reader was used to measure the absorbance at 405 nm. Through this sequence of reactions, degranulation occurred and the activity of β-hexosaminidase contained in the granules was measured to calculate the proportion of granules released from the cells to the culture supernatant. […]
# [2] = tested on: rat basophile derived cell line RBL-2H3; assay: Test for evaluating percent cell survival (WST-1); type: cell-based; details: RBL-2H3, 40 min incubation
# Description: The rat basophile derived cell line RBL-2H3 diluted to the same concentration as in Example 1 was dispensed on a 96-well culture plate in a volume of 0.1 ml/well and cultured overnight at 37° C. under conditions of 5% CO2 and 100% humidity. After removing the culture supernatant, the cell surfaces were washed with 1 ml/well of PBS and then an MT buffer containing an authentic sample of chlorophyll c2 at the same concentrations by dry weight as in Example 1 was added in a volume of 100 μl/well and incubation was conducted for 40 minutes at 37° C. under conditions of 5% CO2 and 100% humidity. To a control group that would not undergo suppression of the degranulation reaction, an MT buffer containing 0.5% ethanol was added. After 40-min incubation, WST-1 reagent (product of DOJINDO) was added in a volume of […] and the mixture was incubated for 30 minutes at 37° C. under conditions of 5% CO2 and 100% humidity. After the end of incubation, the mixture was left to stand at room temperature for 10 minutes and then the absorbance at 450 nm was measured to evaluate the percent cell survival.
Compound,degranulation suppressing activity (percent degranulation) [1],percent cell survival (cytotoxicity) [2],degranulation suppressing activity (percent degranulation) ([1]; listed as Fr. J),"concentration at which degranulation suppressing activity was already apparent ([1]; by dry weight, RBL-2H3, FIG. 1)"
"C=Cc1c(C)c2cc3nc(c4c5[n-]c(cc6nc(cc1[n-]2)C(C)=C6CC)c(C)c5C(=O)[C@@H]4C(=O)OC)[C@@H](CCC(=O)OC/C=C(\C)CCC[C@H](C)CCC[C@H](C)CCCC(C)C)[C@@H]3C.[Mg+2] [chlorophyll a, reference compound]",no degranulation suppressing activity at all,–,–,–
C=Cc1c(C)c2[nH]c1=CC1=NC(=CC3=C(C)C4=C([O-])[C@H](C(=O)OC)C(=C5N=C(C=2)C(C)=C5/C=C/C(=O)[O-])C4=N3)C(CC)=C1C.[Mg+2] [chlorophyll c1],found to exhibit the degranulation suppressing activity,neither the cell group treated with the authentic sample of chlorophyll c1 nor the cell group treated with the authentic sample of chlorophyll c3 was recognized to experience a drop in the percent cell survival,–,–
C=CC1=C(C)C2=CC3=NC(=C4C5=NC(=C(C)C5=C([O-])[C@@H]4C(=O)OC)C=c4[nH]c(c(C(=O)OC)c4C=C)=CC1=N2)C(/C=C/C(=O)[O-])=C3C.[Mg+2] [chlorophyll c3],found to exhibit the degranulation suppressing activity,neither the cell group treated with the authentic sample of chlorophyll c1 nor the cell group treated with the authentic sample of chlorophyll c3 was recognized to experience a drop in the percent cell survival,–,–
"C=Cc1c(C)c2cc3nc(c4c5[n-]c(cc6nc(cc1[n-]2)C(C=O)=C6CC)c(C)c5C(=O)[C@@H]4C(=O)OC)[C@@H](CCC(=O)OC/C=C(\C)CCC[C@H](C)CCC[C@H](C)CCCC(C)C)[C@@H]3C.[Mg+2] [chlorophyll b, reference compound]",no degranulation suppressing activity at all,–,–,–
C=CC1=C(C)C2=NC1=CC1=C(C)C3=C([O-])[C@H](C(=O)OC)C(=C4N=C(C=c5[nH]c(c(C=C)c5C)=C2)C(C)=C4/C=C/C(=O)[O-])C3=N1.[Mg+2] [chlorophyll c2],exhibit the degranulation suppressing activity in a dose-dependent manner,none of the cell groups treated with the authentic sample of chlorophyll c2 experienced a drop in percent cell survival,found to have the evaluating degranulation suppressing activity,about 0.05 μg/ml
"CCC1=C(C)c2cc3[n-]c(cc4nc(c5c6[n-]c(cc1n2)c(C)c6C(=O)[C@@H]5C(=O)OC)[C@@H](CCC(=O)OC/C=C(\C)CCC[C@H](C)CCC[C@H](C)CCCC(C)C)[C@@H]4C)c(C)c3C=O.[Mg+2] [chlorophyll d, reference compound]",no degranulation suppressing activity at all,–,–,–
